One experiment concerns the target T1, Nitric oxide synthase 3 (Bos taurus, UniProt P29473).
T1 sequence (P29473 whole entry): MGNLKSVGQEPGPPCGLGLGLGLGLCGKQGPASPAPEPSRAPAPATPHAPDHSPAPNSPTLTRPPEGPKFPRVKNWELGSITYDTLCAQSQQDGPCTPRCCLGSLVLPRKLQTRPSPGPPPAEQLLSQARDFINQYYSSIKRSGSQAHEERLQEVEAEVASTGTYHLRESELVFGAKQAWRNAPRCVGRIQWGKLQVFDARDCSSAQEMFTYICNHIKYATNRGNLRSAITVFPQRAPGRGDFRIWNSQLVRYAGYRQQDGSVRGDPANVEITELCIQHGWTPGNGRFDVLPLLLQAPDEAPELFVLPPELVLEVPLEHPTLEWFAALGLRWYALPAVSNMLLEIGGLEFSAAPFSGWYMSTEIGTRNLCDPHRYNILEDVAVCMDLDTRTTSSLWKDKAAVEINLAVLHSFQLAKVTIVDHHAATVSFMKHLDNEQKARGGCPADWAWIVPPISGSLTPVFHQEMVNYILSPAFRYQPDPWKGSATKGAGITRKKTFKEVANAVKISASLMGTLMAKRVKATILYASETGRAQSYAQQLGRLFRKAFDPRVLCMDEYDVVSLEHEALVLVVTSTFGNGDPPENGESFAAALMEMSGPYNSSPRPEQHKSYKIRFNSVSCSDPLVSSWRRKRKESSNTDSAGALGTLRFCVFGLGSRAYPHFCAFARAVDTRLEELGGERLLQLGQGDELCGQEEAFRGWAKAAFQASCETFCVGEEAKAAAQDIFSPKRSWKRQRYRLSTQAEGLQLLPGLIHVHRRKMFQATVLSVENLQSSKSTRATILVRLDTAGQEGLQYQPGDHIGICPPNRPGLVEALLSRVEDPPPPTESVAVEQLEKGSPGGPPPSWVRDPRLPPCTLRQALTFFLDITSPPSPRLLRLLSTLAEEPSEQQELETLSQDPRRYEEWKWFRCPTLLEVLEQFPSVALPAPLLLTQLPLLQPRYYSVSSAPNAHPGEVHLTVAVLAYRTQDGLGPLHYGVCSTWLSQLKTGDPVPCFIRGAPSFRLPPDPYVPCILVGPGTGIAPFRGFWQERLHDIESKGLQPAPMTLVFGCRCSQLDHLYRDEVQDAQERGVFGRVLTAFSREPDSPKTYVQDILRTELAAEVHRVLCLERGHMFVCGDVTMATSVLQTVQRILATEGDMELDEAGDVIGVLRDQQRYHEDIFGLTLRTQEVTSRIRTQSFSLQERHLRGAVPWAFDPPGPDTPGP
Kind of experiment: Inhibition of bovine recombinant eNOS.

Experiment [1] in a line: Selectivity ratio of IC50 for rat recombinant nNOS to IC50 for mouse recombinant iNOS.
Experiment [2] is described as follows: Selectivity ratio of IC50 for rat recombinant nNOS to IC50 for bovine recombinant eNOS.

The values below come from ChEMBL document CHEMBL1275378, “Exploration of the active site of neuronal nitric oxide synthase by the design and synthesis of pyrrolidinomethyl 2-aminopyridine derivatives” (J Med Chem, 2010).

Molecules are shown by their SMILES.

What is called Ki is the equilibrium dissociation constant of an inhibitor or competing ligand from its target.

For `Cc1cc(N)nc(C[C@H]2CNC[C@@H]2NCCNCc2ccc(Cl)cc2Cl)c1` (racemic), the inhibition constant Ki on Nitric oxide synthase 3 turned out to be 76.1 µM. Also, in experiment [1], the Ratio was 92. In addition, the nNOS selectivity over eNOS (eNOS IC50 / nNOS IC50) in experiment [2] was found to be 158.
Take `Cc1cc(N)nc(C[C@H]2CNC[C@@H]2NCCNCCc2ccc(F)cc2)c1` (racemic): at Nitric oxide synthase 3, the inhibition constant Ki was found to be 44.1 µM. Moreover, the Ratio in experiment [1] came out at 190. Also, in experiment [2], the nNOS selectivity over eNOS (eNOS IC50 / nNOS IC50) was determined as 370.
`Cc1cc(N)nc(C[C@H]2CNC[C@@H]2NCCN)c1` (racemic; form 2) [listing 1 of 2 here]: the Ki on Nitric oxide synthase 3 turned out to be 263 µM.
The same measure, in the same setting: the value for `NCCN1C[C@H](Cc2cccc(N)n2)[C@H](NCCCO)C1` (racemic) was 849 µM.
Consider `NCCN1C[C@H](Cc2cccc(N)n2)[C@@H](NCCCc2ccccc2)C1` (racemic), for which the Ki at Nitric oxide synthase 3 amounted to 173 µM. In addition, the Ratio in experiment [1] was 110. Besides, the nNOS selectivity over eNOS (eNOS IC50 / nNOS IC50) in experiment [2] was 43.
For `Nc1cccc(C[C@H]2CNC[C@@H]2NC[C@@H](N)Cc2ccccc2)n1` (racemic) the same measures were 1450 µM, 20 and 71.
Take `Cc1cc(N)nc(C[C@H]2CNC[C@@H]2NCCCO)c1` (racemic): the Ratio in experiment [1] turned out to be 8.
On the same count and under the same terms, the value for `Cc1cc(N)nc(C[C@H]2CNC[C@@H]2NCCN)c1` (racemic; form 1) [listing 1 of 2 here] was 9.
Regarding `Nc1cccc(C[C@H]2CNC[C@@H]2N[C@H]2CCNC2)n1` (racemic), the Ki at Nitric oxide synthase 3 came out at 625 µM. Moreover, the Ratio in experiment [1] was 18. Also, the nNOS selectivity over eNOS (eNOS IC50 / nNOS IC50) in experiment [2] is 49.
For `Cc1cc(N)nc(C[C@H]2CNC[C@@H]2NCCCc2ccccc2)c1` (racemic), the Ki on Nitric oxide synthase 3 was 85.2 µM. The Ratio in experiment [1] turned out to be 11. In experiment [2], the nNOS selectivity over eNOS (eNOS IC50 / nNOS IC50) stood at 6.
On the same counts, the results for `Nc1cccc(C[C@H]2CNC[C@@H]2NCCNCc2ccccc2)n1` (racemic) are 2910 µM, 11.5 and 201.
As for `Nc1cccc(C[C@H]2CNC[C@@H]2N[C@@H]2CCN(Cc3ccccc3)C2)n1` (racemic), the Ki at Nitric oxide synthase 3 is 171 µM. Besides, the Ratio in experiment [1] is 12. In addition, in experiment [2], the nNOS selectivity over eNOS (eNOS IC50 / nNOS IC50) amounted to 7.
For `Cc1cc(N)nc(C[C@H]2CNC[C@@H]2NC[C@H](C)NCc2ccc(Cl)cc2)c1` (racemic) the same measures were 16.5 µM, 35 and 28.
On to `Cc1cc(N)nc(C[C@H]2CNC[C@@H]2NCCNCc2cccc(C(F)(F)F)c2)c1` (racemic), for which the Ki on Nitric oxide synthase 3 stood at 109 µM. In addition, in experiment [1], the Ratio came out at 79. Further, the nNOS selectivity over eNOS (eNOS IC50 / nNOS IC50) in experiment [2] turned out to be 147.
For `Cc1cc(N)nc(C[C@H]2CNC[C@@H]2NCCNCc2ccc(F)cc2)c1` (racemic) the same measures were 78.8 µM, 31 and 90.5.
In the case of `Cc1cc(N)nc(C[C@H]2CNC[C@@H]2NCCNCc2ccc(C(F)(F)F)cc2)c1` (racemic), the Ki on Nitric oxide synthase 3 amounted to 61.2 µM.
For `Cc1cc(N)nc(C[C@H]2CNC[C@H]2N(C)CCNCc2ccc(Cl)cc2)c1` (racemic), the Ki at Nitric oxide synthase 3 was found to be 58.1 µM.
In the case of `Nc1cccc(C[C@H]2CNC[C@@H]2N[C@@H]2CCNC2)n1` (racemic), on Nitric oxide synthase 3, the Ki is 460 µM. Also, the Ratio in experiment [1] is 12. Further, the nNOS selectivity over eNOS (eNOS IC50 / nNOS IC50) in experiment [2] amounted to 22.
With `NCCN1C[C@H](Cc2cccc(N)n2)[C@@H](NCCCO)C1` (racemic), the Ki on Nitric oxide synthase 3 was determined as 1700 µM.
For the molecule `Cc1cc(N)nc(C[C@H]2CNC[C@@H]2NCCN)c1` (racemic; form 1) [listing 2 of 2 here], the inhibition constant Ki on Nitric oxide synthase 3 was determined as 866 µM.
With `CN(C)CCN[C@H]1CNC[C@@H]1Cc1cccc(N)n1` (racemic), the inhibition constant Ki on Nitric oxide synthase 3 came out at 242 µM. Besides, the Ratio in experiment [1] came to 20. Besides, the nNOS selectivity over eNOS (eNOS IC50 / nNOS IC50) in experiment [2] amounted to 15.
For `Cc1cccc(CNCCN[C@H]2CNC[C@@H]2Cc2cc(C)cc(N)n2)c1` (racemic) the same measures were 202 µM, 127 and 306.
On the same counts, the results for `NCCN1C[C@H](Cc2cccc(N)n2)[C@H](NCCCc2ccccc2)C1` (racemic) are 122 µM, 13 and 2.5.
On the same counts, the results for `Nc1cccc(C[C@H]2CNC[C@@H]2NC[C@H](N)Cc2ccccc2)n1` (racemic) are 1450 µM, 21.5 and 105.
With `Nc1cccc(C[C@H]2CNC[C@@H]2N[C@H]2CCN(Cc3ccccc3)C2)n1` (racemic), the Ki at Nitric oxide synthase 3 was 109 µM. In experiment [1], the Ratio stood at 12. Moreover, the nNOS selectivity over eNOS (eNOS IC50 / nNOS IC50) in experiment [2] worked out at 6.
As for `Nc1cccc(C[C@H]2CNC[C@@H]2O)n1` (racemic), the Ki at Nitric oxide synthase 3 turned out to be 341 µM. The Ratio in experiment [1] turned out to be 4. Further, the nNOS selectivity over eNOS (eNOS IC50 / nNOS IC50) in experiment [2] turned out to be 49.
On the same counts, the results for `Cc1cc(N)nc(C[C@H]2CNC[C@@H]2NCCNCc2ccc(Cl)c(Cl)c2)c1` (racemic) are 63.2 µM, 57 and 153.
`Cc1cc(N)nc(C[C@H]2CNC[C@@H]2NCCN)c1` (racemic; form 2) [listing 2 of 2 here]: the Ratio in experiment [1] worked out at 52.5.
